{"source": "ChEMBL document CHEMBL1201862", "about": "“PubChem BioAssay data set” (2004)", "key": {"[1]": {"biological_target": "Tyrosine-protein phosphatase non-receptor type 11 (Homo sapiens, UniProt Q06124)", "sequence (Q06124 whole entry)": "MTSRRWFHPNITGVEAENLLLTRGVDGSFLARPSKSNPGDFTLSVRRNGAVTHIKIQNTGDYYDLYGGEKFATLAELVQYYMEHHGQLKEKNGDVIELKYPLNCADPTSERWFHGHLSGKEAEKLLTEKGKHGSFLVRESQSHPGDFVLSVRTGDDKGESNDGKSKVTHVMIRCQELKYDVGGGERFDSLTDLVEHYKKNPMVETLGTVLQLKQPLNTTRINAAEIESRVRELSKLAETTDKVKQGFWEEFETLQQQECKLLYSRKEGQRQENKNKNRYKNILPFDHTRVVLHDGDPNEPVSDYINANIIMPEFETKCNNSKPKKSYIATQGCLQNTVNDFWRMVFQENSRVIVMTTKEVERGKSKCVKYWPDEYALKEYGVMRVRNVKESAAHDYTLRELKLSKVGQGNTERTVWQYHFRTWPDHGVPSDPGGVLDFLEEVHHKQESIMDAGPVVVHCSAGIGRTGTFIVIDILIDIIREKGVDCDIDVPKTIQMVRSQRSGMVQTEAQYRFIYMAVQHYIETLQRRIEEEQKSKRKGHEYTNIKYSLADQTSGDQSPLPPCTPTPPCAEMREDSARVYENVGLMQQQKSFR", "assay": "PTPN11 enzyme inhibitors – biochemical, selectivity assay for STEP inhibitor project, dose response (AID 602367)", "format": "functional", "conditions": "read-out: IC50_Mean"}, "[2]": {"biological_target": "Tyrosine-protein phosphatase non-receptor type 5 (Homo sapiens, UniProt P54829)", "sequence (P54829 whole entry)": "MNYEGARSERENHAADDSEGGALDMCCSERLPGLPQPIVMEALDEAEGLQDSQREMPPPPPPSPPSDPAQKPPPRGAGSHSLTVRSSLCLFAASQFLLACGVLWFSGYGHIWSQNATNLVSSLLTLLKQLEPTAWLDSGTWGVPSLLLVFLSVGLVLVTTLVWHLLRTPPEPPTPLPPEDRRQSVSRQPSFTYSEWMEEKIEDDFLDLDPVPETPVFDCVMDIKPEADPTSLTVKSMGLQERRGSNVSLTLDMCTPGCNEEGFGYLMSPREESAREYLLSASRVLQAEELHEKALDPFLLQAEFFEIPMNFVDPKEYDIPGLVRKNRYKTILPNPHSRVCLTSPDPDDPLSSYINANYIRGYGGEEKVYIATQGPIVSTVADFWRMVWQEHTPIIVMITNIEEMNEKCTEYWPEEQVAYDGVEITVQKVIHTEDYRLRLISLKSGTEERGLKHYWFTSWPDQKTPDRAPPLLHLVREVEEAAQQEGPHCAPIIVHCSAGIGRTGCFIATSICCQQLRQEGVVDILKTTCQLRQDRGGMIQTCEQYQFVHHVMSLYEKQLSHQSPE", "assay": "PTPN5 enzyme inhibition – biochemical, fluorescence intensity, uHTS hits, confirmation (AID 602372)", "format": "functional", "conditions": "read-out: IC50_Mean"}, "[3]": {"biological_target": "Dual specificity protein phosphatase 3 (Homo sapiens, UniProt P51452)", "sequence (P51452 whole entry)": "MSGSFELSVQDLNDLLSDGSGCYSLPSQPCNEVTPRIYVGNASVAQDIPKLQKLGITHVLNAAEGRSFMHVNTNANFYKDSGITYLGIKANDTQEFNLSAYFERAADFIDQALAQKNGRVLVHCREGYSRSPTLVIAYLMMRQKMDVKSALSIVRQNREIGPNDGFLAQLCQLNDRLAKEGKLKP", "assay": "VHR phosphatase inhibition, dose response, selectivity assay for STEP inhibitor project, biochemical (AID 602374)", "format": "functional", "conditions": "read-out: IC50_Mean"}, "[4]": {"biological_target": "Platelet-activating factor acetylhydrolase (Mus musculus, UniProt Q60963)", "sequence (Q60963 whole entry)": "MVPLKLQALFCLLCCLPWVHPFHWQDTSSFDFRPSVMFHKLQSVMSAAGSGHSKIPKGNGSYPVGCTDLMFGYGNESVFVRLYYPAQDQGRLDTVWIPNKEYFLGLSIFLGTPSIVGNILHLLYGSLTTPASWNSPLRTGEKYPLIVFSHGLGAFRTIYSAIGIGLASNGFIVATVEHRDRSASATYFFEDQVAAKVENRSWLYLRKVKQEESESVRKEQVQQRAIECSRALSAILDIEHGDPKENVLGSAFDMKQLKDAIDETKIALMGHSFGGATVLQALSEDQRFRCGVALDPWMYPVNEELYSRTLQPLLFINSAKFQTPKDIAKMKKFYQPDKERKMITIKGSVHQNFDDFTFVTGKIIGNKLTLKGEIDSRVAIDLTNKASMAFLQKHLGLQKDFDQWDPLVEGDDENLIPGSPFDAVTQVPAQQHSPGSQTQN", "assay": "Late stage assay provider results from the probe development effort to identify inhibitors of pPAFAH: fluorescence-based dose-response biochemical gel-based competitive Activity-Based Protein Profiling (ABPP) assay for SAR compounds.", "format": "functional"}, "[5]": {"biological_target": "T1, Low molecular weight phosphotyrosine protein phosphatase (Homo sapiens, UniProt P24666)", "T1 sequence (P24666 whole entry)": "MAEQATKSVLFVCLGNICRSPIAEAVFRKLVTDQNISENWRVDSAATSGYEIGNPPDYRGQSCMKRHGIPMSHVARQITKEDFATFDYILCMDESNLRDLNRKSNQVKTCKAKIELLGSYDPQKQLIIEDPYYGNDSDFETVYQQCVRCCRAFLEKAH", "format": "functional", "conditions": "read-out: IC50_Mean"}, "Protein RecA": {"biological_target": "T2, Protein RecA (Mycobacterium tuberculosis, UniProt P9WHJ3)", "T2 sequence (P9WHJ3 whole entry)": "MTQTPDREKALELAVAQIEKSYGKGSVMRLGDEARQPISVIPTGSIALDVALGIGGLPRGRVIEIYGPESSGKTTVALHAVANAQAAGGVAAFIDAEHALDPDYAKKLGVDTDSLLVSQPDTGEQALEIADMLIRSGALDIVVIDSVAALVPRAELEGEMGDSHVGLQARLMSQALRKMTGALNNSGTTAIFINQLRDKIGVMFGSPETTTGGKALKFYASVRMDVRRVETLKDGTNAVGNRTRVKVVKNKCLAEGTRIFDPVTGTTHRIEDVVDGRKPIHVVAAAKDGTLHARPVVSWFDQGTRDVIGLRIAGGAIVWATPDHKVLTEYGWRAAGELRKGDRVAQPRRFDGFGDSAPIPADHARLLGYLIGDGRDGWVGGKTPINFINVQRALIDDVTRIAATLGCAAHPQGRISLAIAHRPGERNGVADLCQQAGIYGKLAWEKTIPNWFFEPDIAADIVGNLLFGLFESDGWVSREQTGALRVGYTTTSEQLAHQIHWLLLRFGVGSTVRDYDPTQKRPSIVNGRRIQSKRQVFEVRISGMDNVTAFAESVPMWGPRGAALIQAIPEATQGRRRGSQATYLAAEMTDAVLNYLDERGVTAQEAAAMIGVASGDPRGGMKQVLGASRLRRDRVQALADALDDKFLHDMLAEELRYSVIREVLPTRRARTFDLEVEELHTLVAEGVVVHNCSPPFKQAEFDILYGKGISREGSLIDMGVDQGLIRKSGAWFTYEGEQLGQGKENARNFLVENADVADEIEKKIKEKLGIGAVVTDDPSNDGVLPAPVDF", "assay": "Fluorescence Cell-Free Homogeneous Dose Retest to Identify Inhibitors of RecA-Intein Splicing Activity. [Related pubchem assays (depositor defined):AID2097, AID2223, AID489010, AID492950]", "format": "functional"}, "[6]": {"biological_target": "T3, Replicative DNA helicase DnaB (Mycobacterium tuberculosis, UniProt P9WMR3)", "T3 sequence (P9WMR3 whole entry)": "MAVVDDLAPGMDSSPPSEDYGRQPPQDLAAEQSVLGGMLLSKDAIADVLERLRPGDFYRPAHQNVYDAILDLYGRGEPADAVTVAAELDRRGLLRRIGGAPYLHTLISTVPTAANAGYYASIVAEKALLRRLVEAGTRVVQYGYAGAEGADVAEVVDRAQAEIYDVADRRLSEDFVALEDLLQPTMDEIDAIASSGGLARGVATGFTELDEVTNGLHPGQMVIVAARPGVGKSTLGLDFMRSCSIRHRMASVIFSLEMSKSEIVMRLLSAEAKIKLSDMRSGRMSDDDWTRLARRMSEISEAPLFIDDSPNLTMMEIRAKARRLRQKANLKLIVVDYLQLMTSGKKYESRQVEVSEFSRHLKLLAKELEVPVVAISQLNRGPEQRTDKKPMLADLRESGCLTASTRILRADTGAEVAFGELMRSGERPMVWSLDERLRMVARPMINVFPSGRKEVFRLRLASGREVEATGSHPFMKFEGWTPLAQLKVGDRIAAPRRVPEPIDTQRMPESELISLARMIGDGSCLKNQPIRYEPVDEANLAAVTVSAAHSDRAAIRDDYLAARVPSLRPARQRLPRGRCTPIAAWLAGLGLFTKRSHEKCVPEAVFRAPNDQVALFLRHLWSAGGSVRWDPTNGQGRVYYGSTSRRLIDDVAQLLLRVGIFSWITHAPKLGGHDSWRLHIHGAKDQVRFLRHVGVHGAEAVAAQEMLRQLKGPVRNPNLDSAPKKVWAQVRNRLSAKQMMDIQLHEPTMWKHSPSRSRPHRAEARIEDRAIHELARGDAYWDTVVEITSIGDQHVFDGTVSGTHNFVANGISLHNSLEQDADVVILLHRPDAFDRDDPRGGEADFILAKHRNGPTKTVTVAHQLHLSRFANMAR", "assay": "DnaB intein splicing inhibitors, dose response, biochemical, cell-free fluorescence (AID 449749)", "format": "functional"}, "[7]": {"biological_target": "Apoptotic protease-activating factor 1 (Homo sapiens, UniProt O14727)", "format": "functional"}, "Nonstructural protein 1": {"biological_target": "Nonstructural protein 1 (Influenza A virus, UniProt Q194T2)", "sequence (Q194T2 whole entry)": "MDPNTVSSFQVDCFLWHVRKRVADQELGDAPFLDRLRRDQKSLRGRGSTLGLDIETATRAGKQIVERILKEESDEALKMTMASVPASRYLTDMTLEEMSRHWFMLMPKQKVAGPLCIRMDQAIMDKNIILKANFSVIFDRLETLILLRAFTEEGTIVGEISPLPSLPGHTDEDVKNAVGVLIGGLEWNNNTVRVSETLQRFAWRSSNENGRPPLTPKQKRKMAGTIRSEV", "format": "functional, Influenza A virus (A/California/07/2009(H1N1))"}, "[8]": {"assay": "luciferase reporter signal suppression in cells – H4 neuroglioma cells, luminescence, dose response (AID 1990)", "format": "functional, cell-based"}, "cells [9]": {"assay": "cells", "format": "functional, cell-based"}, "[10]": {"biological_target": "T4, Type-1 angiotensin II receptor (Homo sapiens, UniProt P30556)", "T4 sequence (P30556 whole entry)": "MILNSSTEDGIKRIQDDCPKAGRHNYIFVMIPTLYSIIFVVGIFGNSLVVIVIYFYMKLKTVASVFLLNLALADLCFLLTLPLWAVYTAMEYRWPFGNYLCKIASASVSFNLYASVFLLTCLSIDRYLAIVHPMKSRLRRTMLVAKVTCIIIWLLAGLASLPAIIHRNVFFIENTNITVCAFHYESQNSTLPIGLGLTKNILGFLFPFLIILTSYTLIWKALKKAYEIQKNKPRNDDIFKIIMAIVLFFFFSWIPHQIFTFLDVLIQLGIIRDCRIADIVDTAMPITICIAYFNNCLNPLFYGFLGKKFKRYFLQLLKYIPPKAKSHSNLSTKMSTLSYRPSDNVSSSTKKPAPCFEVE", "assay": "antagonism of angiotensin II type 1 receptor – cell-based, uHTS hits, selectivity assay for APJ receptor antagonist project, dose response (AID 463214);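 note: antagonist potency against angiotensin II stimulated AT1 response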", "format": "functional"}, "[11]": {"assay": "alpha-synuclein stem-loop luciferase translation blockers – H4 neuroglioma cells, luminescence, confirmation (AID 1988)", "format": "functional, cell-based"}, "Beta-galactosidase": {"biological_target": "Beta-galactosidase (Escherichia coli, UniProt Q8VNN2)", "sequence (Q8VNN2 whole entry)": "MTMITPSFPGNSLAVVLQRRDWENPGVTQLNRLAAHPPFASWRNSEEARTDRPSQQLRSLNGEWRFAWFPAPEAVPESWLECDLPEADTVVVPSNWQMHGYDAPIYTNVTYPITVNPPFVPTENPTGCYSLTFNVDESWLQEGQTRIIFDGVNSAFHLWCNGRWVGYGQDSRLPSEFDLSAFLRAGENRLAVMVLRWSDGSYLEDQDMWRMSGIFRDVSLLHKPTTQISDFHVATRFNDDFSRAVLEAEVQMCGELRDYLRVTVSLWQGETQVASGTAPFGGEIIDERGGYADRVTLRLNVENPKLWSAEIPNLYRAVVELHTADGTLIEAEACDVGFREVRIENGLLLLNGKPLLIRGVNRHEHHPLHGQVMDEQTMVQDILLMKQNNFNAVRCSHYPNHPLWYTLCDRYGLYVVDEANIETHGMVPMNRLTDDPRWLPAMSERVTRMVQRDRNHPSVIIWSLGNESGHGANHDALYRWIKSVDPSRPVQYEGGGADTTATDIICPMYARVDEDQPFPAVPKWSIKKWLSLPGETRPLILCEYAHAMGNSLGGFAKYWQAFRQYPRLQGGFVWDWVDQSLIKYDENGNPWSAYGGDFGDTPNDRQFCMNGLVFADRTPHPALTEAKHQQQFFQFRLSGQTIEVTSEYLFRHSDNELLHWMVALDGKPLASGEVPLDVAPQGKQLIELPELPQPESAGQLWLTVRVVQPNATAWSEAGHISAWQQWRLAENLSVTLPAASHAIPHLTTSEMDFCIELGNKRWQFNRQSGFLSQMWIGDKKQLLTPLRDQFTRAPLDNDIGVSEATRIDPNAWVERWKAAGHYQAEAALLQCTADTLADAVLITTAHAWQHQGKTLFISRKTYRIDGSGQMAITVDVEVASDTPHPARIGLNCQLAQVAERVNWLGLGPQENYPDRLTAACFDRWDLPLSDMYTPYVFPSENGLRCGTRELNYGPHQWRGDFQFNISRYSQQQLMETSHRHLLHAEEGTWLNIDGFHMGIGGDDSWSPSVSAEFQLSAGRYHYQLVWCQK", "assay": "PubChem AID 485352", "format": "functional"}, "[12]": {"biological_target": "Dual specificity tyrosine-phosphorylation-regulated kinase 1A (Rattus norvegicus, UniProt Q63470)", "format": "biochemical, Homo sapiens"}, "cells [13]": {"assay": "cells", "format": "functional, cell-based", "remark": "listed apart in the source"}, "INS1": {"tested_on": "INS1", "assay": "INS-1E survival protection against cytokine death – cell-based, luminescence, retest, dose response (AID 449756);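 note: cell death triggered by IL-1 beta plus TNF-alpha plus IFN-gamma mixture; protective hits raise ATP signal compared with cytokine alone wells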", "format": "functional", "conditions": "Rattus norvegicus"}, "[14]": {"assay": "Luminescence Cell-Based Dose Response HTS to Identify Inhibitors of 5'UTR Stem-Loop Driven Prion Protein mRNA Translation in H4 Neuroglioblastoma Cells. [Related pubchem assays: 1827 (Project Summary), 1813 (Primary HTS)]", "format": "functional"}, "[15]": {"assay": "viability of HCT116 lacking mutant beta-catenin – cell-based, human colon tumor, dose response (AID 1045);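 note: cells exposed to compound for 60 hours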", "format": "functional"}, "Cytochrome P450 3A4": {"biological_target": "Cytochrome P450 3A4 (Homo sapiens, UniProt P08684)", "sequence (P08684 whole entry)": "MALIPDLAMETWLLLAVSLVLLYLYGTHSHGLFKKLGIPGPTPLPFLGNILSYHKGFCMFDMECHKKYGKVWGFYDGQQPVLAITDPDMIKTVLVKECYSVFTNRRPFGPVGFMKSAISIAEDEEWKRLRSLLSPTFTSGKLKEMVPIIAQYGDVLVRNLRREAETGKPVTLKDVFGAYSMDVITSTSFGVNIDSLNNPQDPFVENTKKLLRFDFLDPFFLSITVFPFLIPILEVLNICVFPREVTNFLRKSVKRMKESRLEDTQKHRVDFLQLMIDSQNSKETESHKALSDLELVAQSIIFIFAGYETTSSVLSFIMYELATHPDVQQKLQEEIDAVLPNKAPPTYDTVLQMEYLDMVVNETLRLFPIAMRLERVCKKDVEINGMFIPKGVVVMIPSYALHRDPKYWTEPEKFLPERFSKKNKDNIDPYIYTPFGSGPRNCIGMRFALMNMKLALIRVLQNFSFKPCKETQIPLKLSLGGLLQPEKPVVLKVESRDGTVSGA"}, "[16]": {"assay": "viability of PTEN-deleted HCT116 cells – cell-based, HCT116 PTEN knockout, dose response (AID 1047);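 note: cells exposed to compound for 60 hours before readout; potency for loss of cell viability measured by luminescence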", "format": "functional"}, "[17]": {"biological_target": "DNA repair and recombination protein RAD54-like (Homo sapiens, UniProt Q92698)", "sequence (Q92698 whole entry)": "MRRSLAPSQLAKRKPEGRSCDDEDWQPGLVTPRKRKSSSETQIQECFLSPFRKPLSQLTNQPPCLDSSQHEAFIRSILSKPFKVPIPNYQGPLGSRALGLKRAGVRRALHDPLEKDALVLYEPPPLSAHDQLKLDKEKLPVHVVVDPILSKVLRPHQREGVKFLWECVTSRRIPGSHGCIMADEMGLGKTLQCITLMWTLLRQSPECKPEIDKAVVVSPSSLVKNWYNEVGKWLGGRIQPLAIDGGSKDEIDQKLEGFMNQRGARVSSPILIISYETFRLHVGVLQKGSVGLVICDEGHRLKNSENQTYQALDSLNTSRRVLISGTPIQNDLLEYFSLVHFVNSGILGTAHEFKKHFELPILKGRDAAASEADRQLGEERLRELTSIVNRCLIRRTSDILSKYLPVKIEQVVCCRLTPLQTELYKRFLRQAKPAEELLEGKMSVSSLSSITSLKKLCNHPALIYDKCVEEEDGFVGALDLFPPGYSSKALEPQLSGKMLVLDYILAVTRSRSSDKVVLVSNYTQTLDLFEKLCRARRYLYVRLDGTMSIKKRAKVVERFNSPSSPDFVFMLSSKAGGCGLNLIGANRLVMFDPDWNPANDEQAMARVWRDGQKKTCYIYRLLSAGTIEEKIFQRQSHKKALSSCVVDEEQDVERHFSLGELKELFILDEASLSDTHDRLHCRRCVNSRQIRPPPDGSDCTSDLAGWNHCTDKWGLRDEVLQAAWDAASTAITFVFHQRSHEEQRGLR", "assay": "RAD54 Holliday junction migration blockers – biochemical, fluorescence, cherry-picked samples, dose series, confirmation (AID 651657)", "format": "functional"}}, "note": "Activity calls are given as the source filed them.", "data": [{"compound": "NS(=O)(=O)c1ccccc1", "values": [{"measurement": "IC50", "setting": "[1]", "value": "8.42 µM (active)"}, {"measurement": "IC50", "setting": "[2]", "value": "28.6 µM (inactive)"}, {"measurement": "IC50", "setting": "[3]", "value": "1.5 µM (active)"}]}, {"compound": "Cc1cc(N2CCN(C(=O)Oc3ccc([N+](=O)[O-])cc3)CC2)c2ccccc2n1", "values": [{"measurement": "IC50", "setting": "[4]", "value": "0.179 µM (active)"}, {"measurement": "IC50", "setting": "[5]", "value": "25.4 µM (inactive)"}]}, {"compound": "Cc1nn(-c2ccccc2)c(O)c1/C=N/NC(=O)c1ccc(O)cc1O", "values": [{"measurement": "EC50", "setting": "Protein RecA", "value": "3.13 µM (active)"}, {"measurement": "AC50", "setting": "[6]", "value": "2.5 µM (active)"}, {"measurement": "IC50", "setting": "[7]", "value": "5.15 µM (active)"}, {"measurement": "IC50", "setting": "Nonstructural protein 1", "value": "3.09 µM (active)"}]}, {"compound": "Cc1ncc(CO)c(/C=N/Nc2ccc(C(F)(F)F)cn2)c1O", "values": [{"measurement": "EC50", "setting": "[8]", "value": "5.4 µM (active)"}, {"measurement": "EC50", "setting": "cells [9]", "value": "> 350 µM (not active)"}, {"measurement": "IC50", "setting": "[10]", "value": "28.7 µM (not active)"}, {"measurement": "EC50", "setting": "[11]", "value": "0.907 µM (active)"}, {"measurement": "EC50", "setting": "Beta-galactosidase", "value": "> 40 µM (inactive)"}, {"measurement": "AC50", "setting": "[12]", "value": "5.06 µM (active)"}, {"measurement": "EC50", "setting": "cells [13]", "value": "8.1 µM (active)"}, {"measurement": "AC50", "setting": "INS1", "value": "0.944 µM (active)"}, {"measurement": "EC50", "setting": "[14]", "value": "1.01 µM (active)"}, {"measurement": "IC50", "setting": "Nonstructural protein 1", "value": "7.34 µM (active)"}]}, {"compound": "CCOc1ccc2nc(C)cc(Nc3ccc4c(c3)OCCO4)c2c1", "values": [{"measurement": "EC50", "setting": "[15]", "value": "11.3 µM (active)"}, {"measurement": "AC50", "setting": "Cytochrome P450 3A4", "value": "25.1 µM (inconclusive)"}, {"measurement": "EC50", "setting": "[16]", "value": "14.7 µM (active)"}, {"measurement": "AC50", "setting": "[17]", "value": "25 µM (active)"}]}]}
